Results taken from patent US20030003139A1 (Schering AG, priority 2000, published 2003).

Key:
[1] = solubility (crystal-free loadability) of the active ingredient in polyacrylate matrix-TDS according to Example 1; assay type: physicochemical; details: for content up to which active ingredient is present in dissolved form in matrix-TDS: matrix-TDS according to Example 1
Method: Hydroxytrienedione is weighed in a beaker and with 25 g of a 30% solution of Kollidon^(R) VA 64 in 2-propanol. 10 ml of 2-propanol is added. The mixture that is obtained is stirred for 5 minutes. The mixture is fed into the adhesive solution (Gelva 7881) that is introduced. The following table indicates the adhesive dry mass that is contained in the introduced volume of the adhesive solution. Then, it is stirred for another 0.5 hour. After polarization-microscopic checking to ensure the absence of crystals, the mixture that is obtained is coated by means of a 300 μm doctor blade on a liner that consists of fluoropolymer-coated polyester (Scotchpak^(R) 1022 Release Liner). It is dried for 20 minutes at 70° C. and then laminated with a backing that consists of a co-laminate of PVC-PVDS with polyester (Saran-Hytrel^(R) backing). Round patches with a surface area of 10 cm^2 are punched from the three-layer laminate that is obtained and welded into a sealed bag that is made of aluminum compound foil.
A matrix-TDS, in which the active ingredient is present in dissolved form, can be produced according to Example 1 with gestodene only up to about 1% (m/m). Moreover, it results in recrystallization phenomena of the gestodene. The skin flow cannot increase decisively.

[2] = in-vitro-diffusion test, Franz-flow cell, transdermal in-vitro skin flow from patches; assay type: in vitro ADME, mice; details: for transdermal in-vitro skin flow / transdermal in-vitro skin flow, MW (mean value): gestodene patch 1% by weight; for transdermal in-vitro skin flow, MW (mean value): mean of cells
From the text: The measurements were made with the following in-vitro-diffusion test. A tempered Franz-flow cell is divided into a donor compartment and an acceptor compartment by a 2 cm^2 piece of excised skin from nude mice, whereby the horny layer faces toward the donor. A 3% or 5% solution of hydroxypropyl-β-cyclodextrin in buffer is pumped with the aid of a pneumatic pump from a tempered storage container through the acceptor compartment and collected with the aid of a fraction collector in glass vials that are exchanged at specific time intervals.
The active ingredient-containing patches are bonded to the donor side.
The content of active ingredients is determined in the individual fractions by means of HPLC/UV or GC/FID.
The transdermal in-vitro skin flow is indicated in ng/cm^2/h: […]

[3] = formulations for transdermal systems; cited from earlier work

## C[C@H](O)C(=O)[C@]12C=C[C@@]3(CC1)C1CCC4=CC(=O)CCC4=C1CC[C@]23C (stereo partly drawn) [hydroxytrienedione, (21S)-21-hydroxy-21-methyl-14,17-ethano-19-norpregna-4,9,15-triene-3,20-dione]
[1]
  content up to which active ingredient is present in dissolved form in matrix-TDS: about 20 % (m/m)
[1]; matrix-transdermal systems based on polyacrylate adhesive
  solubility in transdermal systems: about 20 % by weight
[2]; 1%-matrix-TDS
  skin flows for 1%-matrix-TDS, hydroxytrienedione versus gestodene: comparable

## C#C[C@]1(O)C=C[C@H]2[C@@H]3CCC4=CC(=O)CC[C@@H]4[C@H]3CC[C@@]21CC [gestodene]
[3]
  solubility in the matrices used: about 1%
[1]
  content up to which active ingredient is present in dissolved form in matrix-TDS: about 1 % (m/m)
[2]; 1 h, diffusion cell 1
  transdermal in-vitro skin flow: 0 ng/cm^2/h
[2]; 1 h, diffusion cell 2
  transdermal in-vitro skin flow: 0 ng/cm^2/h
[2]; 1 h, diffusion cell 3
  transdermal in-vitro skin flow: 0 ng/cm^2/h
[2]; 1 h, diffusion cell 4
  transdermal in-vitro skin flow: 0 ng/cm^2/h
[2]; 1 h
  transdermal in-vitro skin flow, MW (mean value): 0 ng/cm^2/h
[2]; 3 h, diffusion cell 1
  transdermal in-vitro skin flow: 1 ng/cm^2/h
[2]; 3 h, diffusion cell 2
  transdermal in-vitro skin flow: 4 ng/cm^2/h
[2]; 3 h, diffusion cell 3
  transdermal in-vitro skin flow: 2 ng/cm^2/h
[2]; 3 h, diffusion cell 4
  transdermal in-vitro skin flow: 5 ng/cm^2/h
[2]; 3 h
  transdermal in-vitro skin flow, MW (mean value): 3 ng/cm^2/h
[2]; 5 h, diffusion cell 1
  transdermal in-vitro skin flow: 5 ng/cm^2/h
[2]; 5 h, diffusion cell 2
  transdermal in-vitro skin flow: 31 ng/cm^2/h
[2]; 5 h, diffusion cell 3
  transdermal in-vitro skin flow: 14 ng/cm^2/h
[2]; 5 h, diffusion cell 4
  transdermal in-vitro skin flow: 18 ng/cm^2/h
[2]; 5 h
  transdermal in-vitro skin flow, MW (mean value): 17 ng/cm^2/h
[2]; 10 h, diffusion cell 1
  transdermal in-vitro skin flow: 39 ng/cm^2/h
[2]; 10 h, diffusion cell 2
  transdermal in-vitro skin flow: 72 ng/cm^2/h
[2]; 10 h, diffusion cell 3
  transdermal in-vitro skin flow: 80 ng/cm^2/h
[2]; 10 h, diffusion cell 4
  transdermal in-vitro skin flow: 58 ng/cm^2/h
[2]; 10 h
  transdermal in-vitro skin flow, MW (mean value): 62 ng/cm^2/h
[2]; 18 h, diffusion cell 1
  transdermal in-vitro skin flow: 77 ng/cm^2/h
[2]; 18 h, diffusion cell 2
  transdermal in-vitro skin flow: 46 ng/cm^2/h
[2]; 18 h, diffusion cell 3
  transdermal in-vitro skin flow: 110 ng/cm^2/h
[2]; 18 h, diffusion cell 4
  transdermal in-vitro skin flow: 36 ng/cm^2/h
[2]; 18 h
  transdermal in-vitro skin flow, MW (mean value): 67 ng/cm^2/h
[2]; 26 h, diffusion cell 1
  transdermal in-vitro skin flow: 120 ng/cm^2/h
[2]; 26 h, diffusion cell 2
  transdermal in-vitro skin flow: 45 ng/cm^2/h
[2]; 26 h, diffusion cell 3
  transdermal in-vitro skin flow: 111 ng/cm^2/h
[2]; 26 h, diffusion cell 4
  transdermal in-vitro skin flow: 33 ng/cm^2/h
[2]; 26 h
  transdermal in-vitro skin flow, MW (mean value): 77 ng/cm^2/h
[2]; 34 h, diffusion cell 1
  transdermal in-vitro skin flow: 50 ng/cm^2/h
[2]; 34 h, diffusion cell 2
  transdermal in-vitro skin flow: 39 ng/cm^2/h
[2]; 34 h, diffusion cell 3
  transdermal in-vitro skin flow: 83 ng/cm^2/h
[2]; 34 h, diffusion cell 4
  transdermal in-vitro skin flow: 31 ng/cm^2/h
[2]; 34 h
  transdermal in-vitro skin flow, MW (mean value): 51 ng/cm^2/h
[2]; 42 h, diffusion cell 1
  transdermal in-vitro skin flow: 47 ng/cm^2/h
[2]; 42 h, diffusion cell 2
  transdermal in-vitro skin flow: 33 ng/cm^2/h
[2]; 42 h, diffusion cell 3
  transdermal in-vitro skin flow: 74 ng/cm^2/h
[2]; 42 h, diffusion cell 4
  transdermal in-vitro skin flow: 25 ng/cm^2/h
[2]; 42 h
  transdermal in-vitro skin flow, MW (mean value): 45 ng/cm^2/h
[2]; 50 h, diffusion cell 1
  transdermal in-vitro skin flow: 37 ng/cm^2/h
[2]; 50 h, diffusion cell 2
  transdermal in-vitro skin flow: 27 ng/cm^2/h
[2]; 50 h, diffusion cell 3
  transdermal in-vitro skin flow: 44 ng/cm^2/h
[2]; 50 h, diffusion cell 4
  transdermal in-vitro skin flow: 22 ng/cm^2/h
[2]; 50 h
  transdermal in-vitro skin flow, MW (mean value): 32 ng/cm^2/h
